According to patent US10463040B2, “Composition comprising a pesticide and isononanoic acid N,N-dimethyl amide” (BASF SE, priority 2015, dated 2019):

How the values were obtained:
[1] = Emulsion stability: 5% of the emulsion concentrate diluted in CIPAC water D, ml cream after 1, 2, 4 and 24 h; assay type: physicochemical; parameters: key to Emulsion 5% in Cipac D 2 h / Emulsion 5% in Cipac D 4 h / Emulsion 5% in Cipac D 1 h / Emulsion 5% in Cipac D 24 h: stable = no cream; conditions: for Emulsion 5% in Cipac D 1 h / Emulsion 5% in Cipac D 2 h / Emulsion 5% in Cipac D 4 h / Emulsion 5% in Cipac D 24 h: amide 63%; for Stability of the emulsion comprising the amide: summary in words of Example 4
Procedure: Stable in the context of the present invention means that no cream has formed within 24 hours after mixing components of a formulation. To measure the stability, 5% of the formulation (emulsion concentrate) is diluted in CIPAC water D in a 100 ml cylinder. The resulting oil-in-water emulsion is assessed after 1, 2, 4 and 24 hours.

[2] = Determination of the max. solubility of fungicide/herbicide in the carboxylic acid amide (quantitative 1H-NMR of supernatant); assay type: physicochemical
Procedure: The respective fungicide/herbicide was dissolved in the solvent of interest so that a supersaturated solution was obtained. The deposit was filtered off. The concentration of the fungicide/herbicide in the supernatant was determined via quantitative 1H-NMR spectroscopy.

wheat and black bindweed = test: Phytotoxicity laboratory test: plants treated with 2 g of a 1% emulsion, evaluated visually after 3 days; assay type: in vivo
Procedure: No phytotoxicity in the context of the present invention means that in comparison to untreated plants, 0% of the treated plants have plant injury according to the phytotoxicity method described below.
Phytotoxicity in accordance with the present invention is determined by an assay where e.g. wheat (grasses) or black bindweed (broad leave), are treated with 2 g of a 1% Emulsion described below and are visually evaluated after 3 days of incubation. Plant injury covers the assessment of leave condition as well as resistance to lodging in case of grasses.
The emulsion is prepared by mixing 1% of concentrate with water. The concentrate consists of 7.5% of castor oil ethoxylate (30 EO), 2.5% Ca-Dodecylbenzolsulfonate and 90% carboxylic acid amide. The experimental period lasts for 3 days. During this time, the experimental plants receive optimum watering, with nutrients being supplied via the water used for watering.
The phytotoxicity is evaluated by awarding scores to the treated plants in comparison to untreated plants, i.e. treated with water only. The evaluation scale ranges from 0% to 100% phytotoxicity. The evaluation is done by visual examination. 0% phytotoxicity means that there are no differences between treated and untreated plants. […]
Plants, i.e. wheat and black bindweed, were treated with 2 g of a 1% Emulsion described below and were visually evaluated after 3 days of incubation. […]

[3] = Formulation: Oxyfluorfen 25%, Ca Dodecylbenzolsulfonat 2%, Castor oil ethoxylate (35 EO) 10%
[4] = Formulation: Oxyfluorfen 25%, Castor oil ethoxylate (35 EO) 12%
[5] = Formulation: Tebuconazol 25%, Ca Dodecylbenzolsulfonat 2%, Castor oil ethoxylate (35 EO) 10%
[6] = Formulation: Tebuconazol 25%, Castor oil ethoxylate (35 EO) 12%

Row | Emulsion 5% in Cipac D 1 h [1, 3] | Emulsion 5% in Cipac D 2 h [1, 3] | Emulsion 5% in Cipac D 4 h [1, 3] | Emulsion 5% in Cipac D 24 h [1, 3] [ml cream] | Emulsion 5% in Cipac D 1 h [1, 4] | Emulsion 5% in Cipac D 2 h [1, 4] | Emulsion 5% in Cipac D 4 h [1, 4] | Emulsion 5% in Cipac D 24 h [1, 4] | Emulsion 5% in Cipac D 1 h [1, 5] | Emulsion 5% in Cipac D 2 h [1, 5] | Emulsion 5% in Cipac D 4 h [1, 5] | Emulsion 5% in Cipac D 24 h [1, 5] [ml cream] | Emulsion 5% in Cipac D 1 h [1, 6] | Emulsion 5% in Cipac D 2 h [1, 6] | Emulsion 5% in Cipac D 4 h [1, 6] [ml cream] | Emulsion 5% in Cipac D 24 h [1, 6] [ml cream] | Stability of the emulsion comprising the amide [1] | Compound | other results
1 | 0.5 ml cream | 3 ml cream | 4.0 ml cream | 6 | 0.5 ml cream | 1 ml cream | 4.0 ml cream | 6 ml cream | 3.0 ml cream | 8 ml cream | 8.0 ml cream | 8 | stable | 2 ml cream | 3.0 | 3 | unstable | CCCCCCCCC(=O)N(C)C [n-C9 N,N-dimethylamide] | Solubility [%] Oxyfluorfen [2]: 34%; Solubility [%] Pyraclostrobin [2]: 46%; Solubility [%] Tebuconazole [2]: 42%
2 | stable | stable | stable | 0.5 | stable | stable | stable | stable | stable | stable | stable | 0.5 | stable | stable | 0.5 | 0.5 | stable | CC(CC(=O)N(C)C)CC(C)(C)C (stereo not drawn) [Isononanoic acid N,N-dimethylamide, isononanoic acid N,N-dimethylamide] | Phytotoxicity (wheat and black bindweed; 3 days after treatment, 1% emulsion of concentrate (7.5% castor oil ethoxylate (30 EO), 2.5% Ca-Dodecylbenzolsulfonate, 90% amide), wheat and black bindweed): 0 (0 means no damage); Phytotoxic effect on plants (wheat and black bindweed; statement in words in the description): no phytotoxic effect
